Measured values from ChEMBL document CHEMBL1137694, “Predicting anti-HIV activity of 1,3,4-thiazolidinone derivatives: 3D-QSAR approach” (Eur J Med Chem, 2009).

These compounds were tested on Human immunodeficiency virus (assay: Antiviral activity against HIV assessed as reduction in virus-induced cytopathic effect by XTT assay). Conditions: Human immunodeficiency virus 1, read-out: pEC50 (converted).
Type: functional, organism-based
Work on Cc1cc(C)nc(N2C(=O)CSC2c2c(F)cccc2F)c1 (configuration not stated) yielded an EC50 of 58.9 nM. In the case of O=C1CSC(c2c(F)cccc2Cl)N1c1cccc(Br)n1 (configuration not stated), the EC50 is reported as 63.9 nM. With Cc1cccc(N2C(=O)CSC2c2c(F)cccc2F)n1 (configuration not stated) the EC50 was 81.9 nM. O=C1CSC(c2c(F)cccc2F)N1c1cccnc1 (configuration not stated) was tested, and the EC50 was 10.5 nM. O=C1CSC(c2c(F)cccc2F)N1c1cccc(Br)n1 (configuration not stated) showed an EC50 of 29.9 nM. Work on Cc1cc(C)nc(N2C(=O)CSC2c2c(Cl)cccc2Cl)c1 (configuration not stated) yielded an EC50 of 89.8 nM. Cc1cc(O)nc(N2C(=O)CSC2c2c(Cl)cccc2Cl)n1 (configuration not stated) gave an EC50 of 30.4 nM. COc1cc(C)nc(N2C(=O)CSC2c2c(Cl)cccc2Cl)n1 (configuration not stated) showed an EC50 of 23.9 nM. COc1cc(C)nc(N2C(=O)CSC2c2c(F)cccc2Cl)n1 (configuration not stated) gave an EC50 of 55.9 nM. For Cc1cc(C)nc(N2C(=O)CSC2c2c(F)cccc2Cl)n1 (configuration not stated), the EC50 was 37.9 nM. With Cc1cc(C)nc(N2C(=O)CSC2c2c(Cl)cccc2Cl)n1 (configuration not stated) the EC50 was 17 nM. Cc1cccc(N2C(=O)CSC2c2c(Cl)cccc2Cl)n1 (configuration not stated) was tested, and the EC50 was 43.9 nM. For CC1CC(C)C1N1C(=O)CSC1c1c(F)cccc1Cl (configuration not stated), the EC50 was 85.7 nM. With COc1cccc(OC)c1C1SCC(=O)N1c1cc(Br)ccn1 (configuration not stated) the EC50 was 44.9 nM. For COc1cccc(OC)c1C1SCC(=O)N1c1cc(C)ccn1 (configuration not stated), the EC50 was 49.9 nM. With CC1CCC1N1C(=O)CSC1c1c(Cl)cccc1Cl (configuration not stated) the EC50 was 79.8 nM. Cc1cccnc1N1C(=O)CSC1c1c(F)cccc1F (configuration not stated) was tested, and the EC50 was 18.7 nM. COc1cccc(F)c1C1SCC(=O)N1c1cc(Br)ccn1 (configuration not stated) was tested, and the EC50 was 33.9 nM. Compound Cc1cccc(N2C(=S)CSC2c2c(Cl)cccc2Cl)n1 (configuration not stated) has an EC50 of 86.9 nM. Cc1cc(Cl)nc(N2C(=O)CSC2c2c(Cl)cccc2Cl)n1 (configuration not stated) was tested, and the EC50 was 19.3 nM. COC1CCC1N1C(=O)CSC1c1c(F)cccc1F (configuration not stated) gave an EC50 of 84.6 nM. With Cc1ccnc(N2C(=O)CSC2c2c(Cl)cccc2Cl)n1 (configuration not stated) the EC50 was 43.9 nM.
